In ChEMBL document CHEMBL4118122, “Identification and biological evaluation of thiazole-based inverse agonists of RORγt” (Bioorg Med Chem Lett, 2018):
≈ marks a conversion by molar mass, not a printed value. Each block holds one compound with its values, some of them ahead of it.

Legend:
[1] = target: T1, PXR (NR1I2) (Homo sapiens, UniProt O75469); experiment: […] at PXR LBD (unknown origin) expressed in HEK293 cells […] at 10 uM after 16 hrs by luciferase reporter gene assay relative to rifampicin; format: ADME, cell-based; settings: HEK293 cells expressing PXR LBD, read-out: Efficacy
T1 sequence (O75469 whole entry): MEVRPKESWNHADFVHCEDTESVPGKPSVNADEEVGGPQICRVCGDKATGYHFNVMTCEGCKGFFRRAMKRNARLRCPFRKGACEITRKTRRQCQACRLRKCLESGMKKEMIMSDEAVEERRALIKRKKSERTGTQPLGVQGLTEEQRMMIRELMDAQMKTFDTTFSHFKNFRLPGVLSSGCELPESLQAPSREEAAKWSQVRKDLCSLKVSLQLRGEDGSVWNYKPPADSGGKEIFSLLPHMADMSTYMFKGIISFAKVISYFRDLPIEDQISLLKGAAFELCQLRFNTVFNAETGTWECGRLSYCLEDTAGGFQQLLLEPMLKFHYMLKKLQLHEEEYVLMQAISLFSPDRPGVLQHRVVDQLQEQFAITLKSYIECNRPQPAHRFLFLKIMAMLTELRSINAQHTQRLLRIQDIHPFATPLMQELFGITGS

[2] = target: T1, PXR (NR1I2); experiment: […] at PXR LBD (unknown origin) expressed in HEK293 cells […] at 1 uM after 16 hrs by luciferase reporter gene assay relative to rifampicin; format: ADME, cell-based; settings: HEK293 cells expressing PXR LBD, read-out: Efficacy
[3] = Thermodynamic solubility of the compound in 30 mM phosphate buffer at 10 mM at pH 7 after 2 to 5 days by UV-HPLC analysis; format: physicochemical; settings: read-out: Therm_solubility
[4] = Half life in human microsomes; format: ADME, Microsome
[5] = target: Cytochrome P450 2C19 (Homo sapiens, UniProt P33261); experiment: Inhibition of CYP2C19 (unknown origin); format: ADME
[6] = Half life in rat microsomes; format: ADME, Microsome
[7] = target: Cytochrome P450 3A4 (Homo sapiens, UniProt P08684); experiment: Inhibition of CYP3A4 (unknown origin); format: ADME
[8] = target: Cytochrome P450 2C9 (Homo sapiens, UniProt P11712); experiment: Inhibition of CYP2C9 (unknown origin); format: ADME
[9] = target: T2, Cytochrome P450 1A2 (Homo sapiens, UniProt P05177); experiment: Inhibition of CYP1A2 (unknown origin); format: ADME
T2 sequence (P05177 whole entry): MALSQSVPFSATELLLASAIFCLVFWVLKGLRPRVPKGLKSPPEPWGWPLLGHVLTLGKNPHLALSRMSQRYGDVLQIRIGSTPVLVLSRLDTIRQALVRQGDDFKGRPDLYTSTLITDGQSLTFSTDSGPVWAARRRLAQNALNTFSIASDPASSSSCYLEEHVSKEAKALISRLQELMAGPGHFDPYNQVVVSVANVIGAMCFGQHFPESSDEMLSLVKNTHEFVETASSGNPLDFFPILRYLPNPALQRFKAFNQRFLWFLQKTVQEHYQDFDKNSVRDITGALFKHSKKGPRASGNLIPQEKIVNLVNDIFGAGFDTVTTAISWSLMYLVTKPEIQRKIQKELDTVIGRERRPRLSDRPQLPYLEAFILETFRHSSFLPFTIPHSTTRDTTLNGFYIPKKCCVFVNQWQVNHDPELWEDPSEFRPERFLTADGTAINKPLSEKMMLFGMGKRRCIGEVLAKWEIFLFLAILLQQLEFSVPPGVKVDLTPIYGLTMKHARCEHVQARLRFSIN

[10] = target: Cytochrome P450 2D6 (Homo sapiens, UniProt P10635); experiment: Inhibition of CYP2D6 (unknown origin); format: ADME
[11] = target: T3, Cytochrome P450 2C8 (Homo sapiens, UniProt P10632); experiment: Inhibition of CYP2C8 (unknown origin); format: ADME
T3 sequence (P10632 whole entry): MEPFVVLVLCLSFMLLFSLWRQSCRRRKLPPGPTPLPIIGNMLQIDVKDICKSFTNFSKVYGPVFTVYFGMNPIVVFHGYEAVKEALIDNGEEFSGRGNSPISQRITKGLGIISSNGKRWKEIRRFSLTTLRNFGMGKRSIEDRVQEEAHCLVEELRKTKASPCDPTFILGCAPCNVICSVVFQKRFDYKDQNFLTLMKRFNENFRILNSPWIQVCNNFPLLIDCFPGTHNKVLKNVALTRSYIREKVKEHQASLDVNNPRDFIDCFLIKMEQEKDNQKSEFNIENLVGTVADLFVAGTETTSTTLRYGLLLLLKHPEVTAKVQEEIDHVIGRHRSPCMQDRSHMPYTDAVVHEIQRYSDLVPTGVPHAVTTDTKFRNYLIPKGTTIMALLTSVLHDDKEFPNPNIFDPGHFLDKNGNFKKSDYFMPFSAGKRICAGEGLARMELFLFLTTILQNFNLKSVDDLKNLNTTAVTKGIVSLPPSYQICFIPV

[12] = target: T1, PXR (NR1I2); experiment: […] at PXR LBD (unknown origin) expressed in HEK293 cells […] at 5 uM after 16 hrs by luciferase reporter gene assay relative to rifampicin; format: ADME, cell-based; settings: HEK293 cells expressing PXR LBD, read-out: Efficacy

Chain of Cytochrome P450 3A4 (P08684 whole entry): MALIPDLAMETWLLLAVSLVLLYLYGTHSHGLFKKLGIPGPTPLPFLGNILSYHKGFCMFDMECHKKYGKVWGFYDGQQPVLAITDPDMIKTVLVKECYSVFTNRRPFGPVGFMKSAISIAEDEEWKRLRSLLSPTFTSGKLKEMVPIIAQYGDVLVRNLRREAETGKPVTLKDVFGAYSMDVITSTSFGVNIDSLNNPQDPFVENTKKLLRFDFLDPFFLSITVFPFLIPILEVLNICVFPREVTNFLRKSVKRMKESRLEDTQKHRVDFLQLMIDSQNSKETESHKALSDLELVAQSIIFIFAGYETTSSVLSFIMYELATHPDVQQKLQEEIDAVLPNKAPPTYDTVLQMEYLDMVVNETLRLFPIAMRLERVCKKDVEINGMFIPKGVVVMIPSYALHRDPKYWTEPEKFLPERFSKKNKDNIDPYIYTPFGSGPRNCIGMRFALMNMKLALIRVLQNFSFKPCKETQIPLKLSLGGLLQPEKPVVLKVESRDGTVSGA
Chain of Cytochrome P450 2C9 (P11712 whole entry): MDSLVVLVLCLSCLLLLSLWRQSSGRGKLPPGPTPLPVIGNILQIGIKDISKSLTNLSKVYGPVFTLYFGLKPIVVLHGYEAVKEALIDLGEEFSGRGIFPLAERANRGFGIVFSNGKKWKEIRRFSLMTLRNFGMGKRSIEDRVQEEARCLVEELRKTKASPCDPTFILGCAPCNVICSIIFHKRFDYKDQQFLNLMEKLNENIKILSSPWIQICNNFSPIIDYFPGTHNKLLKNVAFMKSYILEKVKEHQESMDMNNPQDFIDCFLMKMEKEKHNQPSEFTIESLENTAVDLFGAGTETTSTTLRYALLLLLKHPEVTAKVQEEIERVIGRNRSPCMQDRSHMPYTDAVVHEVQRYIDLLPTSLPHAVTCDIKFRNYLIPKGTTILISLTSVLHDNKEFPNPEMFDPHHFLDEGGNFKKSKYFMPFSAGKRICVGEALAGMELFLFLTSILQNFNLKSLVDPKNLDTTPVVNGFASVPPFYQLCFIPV
Chain of Cytochrome P450 2C19 (P33261 whole entry): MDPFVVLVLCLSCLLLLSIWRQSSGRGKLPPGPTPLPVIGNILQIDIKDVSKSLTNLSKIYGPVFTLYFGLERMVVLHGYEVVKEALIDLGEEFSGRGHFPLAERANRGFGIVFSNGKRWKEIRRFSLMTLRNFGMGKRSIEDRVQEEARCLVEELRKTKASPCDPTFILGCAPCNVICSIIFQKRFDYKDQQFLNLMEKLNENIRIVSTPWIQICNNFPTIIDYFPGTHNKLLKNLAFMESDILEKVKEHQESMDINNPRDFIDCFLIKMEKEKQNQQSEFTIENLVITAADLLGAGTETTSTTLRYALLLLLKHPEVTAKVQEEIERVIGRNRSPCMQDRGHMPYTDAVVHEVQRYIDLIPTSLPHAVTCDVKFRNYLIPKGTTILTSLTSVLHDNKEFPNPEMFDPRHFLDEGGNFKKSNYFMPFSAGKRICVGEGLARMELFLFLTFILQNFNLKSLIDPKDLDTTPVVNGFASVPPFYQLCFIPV
Chain of Cytochrome P450 2D6 (P10635 whole entry): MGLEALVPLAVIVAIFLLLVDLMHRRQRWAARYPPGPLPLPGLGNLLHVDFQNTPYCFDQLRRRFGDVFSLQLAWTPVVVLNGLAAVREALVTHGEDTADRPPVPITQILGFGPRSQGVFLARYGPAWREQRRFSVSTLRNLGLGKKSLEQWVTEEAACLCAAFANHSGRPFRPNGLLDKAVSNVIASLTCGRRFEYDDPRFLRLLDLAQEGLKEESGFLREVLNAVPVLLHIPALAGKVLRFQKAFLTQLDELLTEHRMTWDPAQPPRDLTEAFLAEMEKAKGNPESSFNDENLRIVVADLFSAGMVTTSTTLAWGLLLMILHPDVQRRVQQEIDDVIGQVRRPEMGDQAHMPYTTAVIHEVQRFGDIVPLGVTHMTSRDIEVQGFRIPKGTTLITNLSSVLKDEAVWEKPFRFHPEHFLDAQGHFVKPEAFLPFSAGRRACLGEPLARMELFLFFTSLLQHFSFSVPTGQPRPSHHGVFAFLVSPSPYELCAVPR

Compound: CCS(=O)(=O)c1ccc(CNC(=O)c2nc(CC3CCCCC3)c(-c3ccc(S(=O)(=O)NC(C)(C)C)c4ccccc34)s2)cc1
Emax at 16 h, 10 µM [1]: 94%
Emax at 16 h, 1 µM [2]: 26%

Compound: CC(C)(O)CNC(=O)c1nc(CC2CCCCC2)c(-c2ccc(S(=O)(=O)NC3(C#N)CC3)c3ccccc23)s1
Emax at 16 h, 10 µM [1]: 167%
solubility thermodynamic at 10000 µM [3]: 10 µM (≈ 5.67 µg/mL)
half-life [4]: 27 min
INH [5]: 6.3 µM
half-life [6]: 15 min
INH [7]: 0.9 µM
INH [8]: 0.7 µM
INH [9]: > 10 µM
INH [10]: > 10 µM
Emax at 16 h, 1 µM [2]: 155%
INH [11]: 7.3 µM

Compound: CC(C)(C)NS(=O)(=O)c1ccc(-c2sc(C(=O)NC34CC(C(=O)O)(C3)C4)nc2CC2CCCCC2)c2ccccc12
Emax at 16 h, 10 µM [1]: 116%
Emax at 16 h, 1 µM [2]: 69%

Compound: CC(C)(O)CNC(=O)c1nc(CC2CCCCC2)c(-c2cnc(S(=O)(=O)NC(C)(C)C)c3ccccc23)s1
solubility thermodynamic at 10000 µM [3]: < 4 µM
half-life [4]: 23 min
INH [5]: 7.6 µM
half-life [6]: 5.2 min
INH [7]: > 10 µM
INH [8]: 1.1 µM
INH [9]: > 10 µM
INH [10]: > 10 µM
INH [11]: > 10 µM

Compound: CC(C)(C)NS(=O)(=O)c1ccc(-c2sc(C(=O)N[C@H]3C[C@H](C(=O)O)C3)nc2CC2CCCCC2)c2c1CCCC2
Emax at 16 h, 10 µM [1]: 20%
solubility thermodynamic at 10000 µM [3]: < 1 µM
half-life [4]: 16 min
INH [5]: > 10 µM
half-life [6]: 22 min
INH [7]: > 10 µM
INH [8]: > 10 µM
INH [9]: > 10 µM
INH [10]: > 10 µM
Emax at 16 h, 1 µM [2]: 10%
INH [11]: 4.2 µM

Compound: C[C@H](NS(=O)(=O)c1ccc(-c2sc(C(=O)NCC(C)(C)O)nc2CC2CC(F)(F)C2)c2ccccc12)C(F)(F)F
Emax at 16 h, 5 µM [12]: 80%
Emax at 16 h, 1 µM [2]: 71%

Compound: C[C@H](NS(=O)(=O)c1ccc(-c2sc(C(=O)N[C@H]3C[C@H](C(=O)O)C3)nc2CC2CCC2)c2ccccc12)C(F)(F)F
Emax at 16 h, 5 µM [12]: 118%
Emax at 16 h, 1 µM [2]: 40%

Compound: CC(C)(C)NS(=O)(=O)c1ccc(-c2sc(C(=O)NCC3CS(=O)(=O)C3)nc2CC2CCCCC2)c2ccccc12
Emax at 16 h, 5 µM [12]: 147%
Emax at 16 h, 1 µM [2]: 140%

Compound: CC(C)(C)NS(=O)(=O)c1ccc(-c2sc(C(=O)NCC(C)(C)C(N)=O)nc2CC2CCCCC2)c2ccccc12
Emax at 16 h, 5 µM [12]: 142%
Emax at 16 h, 1 µM [2]: 110%

Further lines, results first:

Emax at 16 h, 5 µM [12]: 7.5%
Emax at 16 h, 1 µM [2]: 3.1%
Compound: C[C@H](NC(=O)c1cc(-c2sc(C(=O)N[C@H]3C[C@H](C(=O)O)C3)nc2CC2CCCCC2)cc(C2(C#N)CC2)c1)C(F)(F)F

Emax at 16 h, 5 µM [12]: 71%
Emax at 16 h, 1 µM [2]: 32%
Compound: CC[C@H](NC(=O)c1cc(-c2sc(C(=O)N[C@H]3C[C@H](C(=O)O)C3)nc2CC2CCCCC2)cc(C2(C)CC2)c1)C(F)(F)F

Emax at 16 h, 10 µM [1]: 23%
Emax at 16 h, 1 µM [2]: 16%
Compound: CC(C)(C)NS(=O)(=O)c1ccc(-c2sc(C(=O)N[C@H]3C[C@H](C(=O)O)C3)nc2CC2CCCCC2)c(Cl)c1Cl

Emax at 16 h, 5 µM [12]: 159%
Emax at 16 h, 1 µM [2]: 157%
Compound: C[C@H](NS(=O)(=O)c1cc(-c2sc(C(=O)N[C@H]3C[C@H](C(=O)O)C3)nc2CC2CCCCC2)cc(C(C)(C)C)c1)C(F)(F)F

Emax at 16 h, 10 µM [1]: 53%
Emax at 16 h, 1 µM [2]: 11%
Compound: CC(C)(C)NC(=O)c1cc(-c2sc(C(=O)N[C@H]3C[C@H](C(=O)O)C3)nc2CC2CCCCC2)cc(C2(C)CC2)c1
